{"source": "ChEMBL document CHEMBL1154999", "about": "“N-(2,2-Dimethyl-2-(2-nitrophenyl)acetyl)-4-aminocyclophosphamide as a potential bioreductively activated prodrug of phosphoramide mustard” (Bioorg Med Chem Lett, 2008)", "type_in_all_cases": "physicochemical", "key": {"[1]": {"assay": "Chemical stability in sodium phosphate buffer assessed as half life at pH 6.5 at 37 degC"}, "[2]": {"assay": "Chemical stability in sodium acetate buffer assessed as half life at pH 5.0 at 37 degC"}, "[3]": {"assay": "Chemical stability in sodium acetate buffer assessed as half life at pH 4.5 at 37 degC"}, "[4]": {"assay": "Chemical stability in sodium acetate buffer assessed as half life at pH 5.4 at 37 degC"}, "[5]": {"assay": "Chemical stability in sodium phosphate buffer assessed as half life at pH 6.0 at 37 degC"}, "[6]": {"assay": "Chemical stability in sodium phosphate buffer assessed as half life at pH 7.4 at 37 degC"}, "[7]": {"assay": "Chemical stability in sodium acetate buffer assessed as half life at pH 4.0 at 37 degC"}, "[8]": {"assay": "Chemical stability in sodium acetate buffer assessed as half life at pH 5.6 at 37 degC"}}}
{"smiles": "CC(C)(C(=O)NC1CCOP(=O)(N(CCCl)CCCl)N1)c1ccccc1N", "note": "(stereo not drawn)", "values": [{"measurement": "half-life", "setting": "[1]", "value": 19.3, "unit": "min"}, {"measurement": "half-life", "setting": "[2]", "value": 9.8, "unit": "min"}, {"measurement": "half-life", "setting": "[3]", "value": 4.9, "unit": "min"}, {"measurement": "half-life", "setting": "[4]", "value": 17.5, "unit": "min"}, {"measurement": "half-life", "setting": "[5]", "value": 12.6, "unit": "min"}, {"measurement": "half-life", "setting": "[6]", "value": 53.7, "unit": "min"}, {"measurement": "half-life", "setting": "[7]", "value": 3.2, "unit": "min"}, {"measurement": "half-life", "setting": "[8]", "value": 27.2, "unit": "min"}]}
